Experimental data from patent EP0226508A1, “Indolo[3,2-c]quinoline derivatives, process for their preparation and their anti-tumour activity” (priority 1985, dated 1987).

Columns and labels:
leucémie P 388 = assay: animal or person; assay type: in vivo, souris hybrides CDF 1
Source text: (§1) L'activité antitumorale a été testée in vivo sur différentes tumeurs selon le protocole général suivant:
(§2) Toutes les souris mâles ou femelles sont inoculées par voie intrapéritonéale au jour Jo avec une quantité déterminée de cellules tumorales viables, variable selon la tumeur.
(§3) Elles sont ensuite réparties en différents lots. Chaque lot correspondant aux animaux traités par le produit à tester à une dose déterminée est composé de 10 souris. Dans ce cas, le produit à tester est dissous dans l'eau distillée et il est administré, pendant n jours (J₁-Jn) variables selon le protocole choisi, par voie intrapéritonéale à raison de 0,1 ml par 10 g de poids des souris traitées, les doses du produit administré étant précisées dans les tableaux ci-dessous.
(§4) Le lot "contrôle négatif", correspondant aux animaux qui ne sont pas traités par un produit, comprend 2 √N animaux, N étant égal au nombre total de souris traitées par un produit.
(§5) Enfin, tous les essais sont conduits parallèlement à l'étude d'un lot appelé "contrôle positif" de 10 animaux qui est traité par une molécule active, variable selon le protocole choisi, dans les mêmes conditions que les lots traités par le produit à tester, afin de valider l'essai.
(§6) L'activité antitumorale est évaluée en considé-rant l'augmentation du temps de survie des animaux traités par rapport à celui des animaux du lot "contrôle négatif" selon la formule : [formula]
(§7) Un composé est considéré comme étant actif lorsque la valeur du rapport T/C est égale ou supérieure à 125 % selon le protocole retenu. Il est toxique lorsque cette valeur est égale ou inférieure à 85 %. Le produit est également considéré comme toxique lorsque la variation pondérale, exprimée en grammes et calculée par la formule : Poids moyen du lot mesuré au jour 5 -poids moyen du même lot au jour 1 est égale ou inférieure à - 4 g.
a) Test de la leucémie P 388 (GERAN et al., Cancer Chemother, 1972, 2, 07-57).
Les essais sont effectués avec des souris hybrides CDF 1 inoculées par voie intrapéritonéale avec 10⁶ cellules leucémiques de la lignée P 388. Le composé à tester est administré pendant 5 jours (J1-J5). Le contrôle positif du test est le 5-fluorouracile qui est administré dans les mêmes conditions. Le nombre d'animaux survivants est évalué au jour J 40. Un composé est considéré comme étant actif lorsque le rapport T/C est supérieur à 127 %.

leucémie L 1210 = assay: In vivo antitumour activity, L 1210 leukemia test; parameters: species or system souris hybrides CDF₁; conditions: for Nombre de survivants: survivors at J 30
Source text: as §1, §2, §3, §4, §5, §6, §7
b) Test de la leucémie L 1210 (GERAN et al., Cancer Chemother, 1972, 2, 07-57).
Les essais sont effectués avec des souris hybrides CDF₁ inoculées avec 10⁵ cellules leucémiques de la lignée L 1210. Le composé à tester est administré pendant 5 jours (J₁-J₅).Le contrôle positif du test est le 5-fluorouracile administré dans les mêmes conditions. Le nombre d'animaux survivants est évalué au jour J 30. Un composé est considéré comme étant actif lorsque le rapport T/C est supérieur ou égal à 125 %.

[1] = system: lignée tumorale leucémie L 1210; assay: In vitro cytotoxic activity on L 1210 leukemia cell culture (inhibition of cell proliferation); assay type: cell-based; conditions: Mus musculus, L1210; L 1210 culture in exponential growth, 37°C, after 48 hours of contact; read-out: ID 50 (the source's name)
Description: 1) In vitro : (PAOLETTI et al., Chem. Biol. Interaction, 1979, 25, 45-58).
L'activité cytotoxique des composés de l'invention a été évaluée par des essais in vitro. Ces essais consistent à ajouter des concentrations croissantes du composé à tester à une culture cellulaire de la lignée tumorale leucémie L 1210 en phase exponentielle de croissance. Les cellules sont incubées à 37°C dans une étuve à CO₂ et comptées toutes les 24 heures. Le calcul de l'ID₅₀ (concentration du produit exprimée en micromole 1⁻¹ qui inhibe la prolifération cellulaire à 50 p. 100) est effectuée après 48 heures de contact. Ainsi déterminées les ID₅₀ des composés de l'invention sont rassemblées dans le tableau ci-après.

[2] = system: souris consanguines DBA₂ saines; assay: Acute toxicity, single intraperitoneal injection in healthy mice, mortality at day 7; assay type: in vivo; conditions: single i.p. injection, 50 mg/kg
mélanome B 16 = assay: In vivo antitumour activity, B 16 melanoma test; parameters: species or system souris hybrides BDF₁; conditions: B 16 melanoma; for Nombre de survivants: survivors at J 60
Source text: as §1, §2, §3, §4, §5, §6
Le produit est également considéré comme toxique lorsque la variation pondérale, exprimée en grammes et calculée par la formule : Poids moyen du lot mesuré au jour 5 -poids moyen du même lot au jour 1 est égale ou inférieure à - 4 g.
Les essais sont effectués avec des souris hybrides BDF₁ inoculées avec 0,5 ml d'un homogénat de mélanome B 16 réalisé à partir de 1 g de tumeur dans 10 ml de sérum physiologique. Le composé à tester est administré pendant 9 jours (J₁-J₉).Le contrôle positif du test est le Cis-Platine administré dans les mêmes conditions. Le nombre d'animaux survivants est évalué au jour J 60.

[3] = L 1210, CDF₁ mice, 5 mg/kg i.p. J1-J5
[4] = L 1210, CDF₁ mice, 10 mg/kg i.p. J1-J5
[5] = L 1210, CDF₁ mice, 20 mg/kg i.p. J1-J5
[6] = L 1210, CDF₁ mice, 30 mg/kg i.p. J1-J5
[7] = L 1210, CDF₁ mice, 1,25 mg/kg i.p. J1-J5
[8] = L 1210, CDF₁ mice, 2,5 mg/kg i.p. J1-J5
[9] = L 1210, CDF₁ mice, 7,5 mg/kg i.p. J1-J5
[10] = BDF₁ mice, 0,625 mg/kg i.p. J1-J9
[11] = BDF₁ mice, 1,25 mg/kg i.p. J1-J9
[12] = BDF₁ mice, 2,5 mg/kg i.p. J1-J9

CCN(CC)CCCNc1nc2ccccc2c2[nH]c3ccc(O)cc3c12 [Dérivé N°11, (diéthylamino-3 propylamino)-6 hydroxy-8 11-H indolo[3,2-c]quinoléine]
response vs control in vivo at 5 mg/kg (leucémie P 388; Mus musculus, P388, ip, P 388, CDF 1 mice, 5 mg/kg i.p. J1-J5, read-out: T/C %): 154% | response vs control in vivo at 1.25 mg/kg (leucémie P 388; Mus musculus, P388, ip, P 388, CDF 1 mice, 1,25 mg/kg i.p. J1-J5, read-out: T/C %): 142% | response vs control in vivo at 2.5 mg/kg (leucémie P 388; Mus musculus, P388, ip, P 388, CDF 1 mice, 2,5 mg/kg i.p. J1-J5, read-out: T/C %): 152% | response vs control in vivo at 15 mg/kg (leucémie P 388; Mus musculus, P388, ip, P 388, CDF 1 mice, 15,0 mg/kg i.p. J1-J5, read-out: T/C %): 146% | Variation pondérale en g (leucémie P 388; in vivo, ip, 5 mg/kg): + 0,6 g | Jour médian de survie (leucémie L 1210; [3]): 14,25 | T/C % (leucémie L 1210; [3]): 160% | Nombre de survivants (leucémie L 1210; [3]): 0 | Jour médian de survie (leucémie L 1210; [4]): 12,25 | T/C % (leucémie L 1210; [4]): 138% | Nombre de survivants (leucémie L 1210; [4]): 0 | Jour médian de survie (leucémie L 1210; [5]): 11,7 | T/C % (leucémie L 1210; [5]): 131% | Nombre de survivants (leucémie L 1210; [5]): 0 | Jour médian de survie (leucémie L 1210; [6]): 8,3 | T/C % (leucémie L 1210; [6]): 93% | Nombre de survivants (leucémie L 1210; [6]): 0 | Jour médian de survie (leucémie L 1210; [7]): 10,9 | T/C % (leucémie L 1210; [7]): 122% | Nombre de survivants (leucémie L 1210; [7]): 0 | Jour médian de survie (leucémie L 1210; [8]): 12,75 | T/C % (leucémie L 1210; [8]): 143% | Nombre de survivants (leucémie L 1210; [8]): 0 | Jour médian de survie (leucémie L 1210; [9]): 12,3 | T/C % (leucémie L 1210; [9]): 138% | Nombre de survivants (leucémie L 1210; [9]): 0 | IC50 [1]: 130 nM | mortalité évaluée au septième jour après l'administration [2]: aucune mortalité | Jour médian de survie (mélanome B 16; BDF₁ mice, 5 mg/kg i.p. J1-J9): 31 | T/C % (mélanome B 16; BDF₁ mice, 5 mg/kg i.p. J1-J9): 132% | Nombre de survivants (mélanome B 16; BDF₁ mice, 5 mg/kg i.p. J1-J9): 0 | Jour médian de survie (mélanome B 16; [10]): 29 | T/C % (mélanome B 16; [10]): 123% | Nombre de survivants (mélanome B 16; [10]): 0 | Jour médian de survie (mélanome B 16; [11]): 40 | T/C % (mélanome B 16; [11]): 170% | Nombre de survivants (mélanome B 16; [11]): 1 | Jour médian de survie (mélanome B 16; [12]): 38 | T/C % (mélanome B 16; [12]): 162% | Nombre de survivants (mélanome B 16; [12]): 2
